Test results reported in US5834284A, “N-acetylglucosaminyl transferase gene coding therefor and process for production thereof” (Suntory Limited, priority 1992, dated 1998).

Molecular target: T1, GnT-V (β1,6-N-acetylglucosaminyl transferase) (Homo sapiens, UniProt Q09328)
T1 construct: 73/60 kDa
T1 sequence (Q09328 31-741): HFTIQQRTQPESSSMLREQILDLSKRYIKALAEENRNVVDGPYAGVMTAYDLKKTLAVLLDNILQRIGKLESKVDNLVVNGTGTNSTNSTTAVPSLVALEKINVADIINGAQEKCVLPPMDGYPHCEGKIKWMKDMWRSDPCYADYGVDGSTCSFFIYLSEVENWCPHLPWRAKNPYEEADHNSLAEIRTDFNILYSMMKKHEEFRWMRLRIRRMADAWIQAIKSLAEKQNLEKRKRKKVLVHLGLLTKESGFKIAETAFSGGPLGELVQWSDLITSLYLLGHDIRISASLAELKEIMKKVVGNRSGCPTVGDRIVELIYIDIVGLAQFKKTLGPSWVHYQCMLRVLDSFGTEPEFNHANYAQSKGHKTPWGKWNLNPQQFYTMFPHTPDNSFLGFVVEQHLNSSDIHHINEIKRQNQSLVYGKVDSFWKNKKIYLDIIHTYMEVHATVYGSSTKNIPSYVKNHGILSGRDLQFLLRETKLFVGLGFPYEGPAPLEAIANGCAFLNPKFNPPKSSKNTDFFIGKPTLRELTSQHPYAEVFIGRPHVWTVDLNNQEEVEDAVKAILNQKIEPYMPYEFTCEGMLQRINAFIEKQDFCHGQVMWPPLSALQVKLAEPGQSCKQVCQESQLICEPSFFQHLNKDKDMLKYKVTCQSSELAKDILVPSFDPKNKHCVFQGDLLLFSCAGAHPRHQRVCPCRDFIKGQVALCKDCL
Experiment: GnT-V enzyme activity assay with fluorescence-labeled sugar acceptors, product separated by HPLC
Assay type: biochemical
Settings: for Relative reaction rate: acceptor 70 μM, purified GnT-V 0.1 mg protein/ml, GnGn-bi-PA = 100; for reactivity relative to GnGn-bi-PA acceptor taken as 100%: substrate specificity
From the text: An enzyme activity can be easily assayed by labeling an acceptor with a radioisotope or with fluorescent substance, adding the enzyme and separating the reaction product by high performance liquid chromatography (HPLC). More specifically, the method reported by Tanigichi et al. (Taniguchi, N., Nishikawa, A., Fujii, S., and Gu. J., Methods Enzymol. 179, 397-408 (1989); Nishikawa, H., Gu, J., Fujii, S., and Tanigichi, N., Biochem. Biophys. Acta, 1035, 313-318 (1990)) may be followed.
Namely, the enzyme activity of GnT-V can be assayed using GnGn-2-aminopyridine (GnGn-bi-PA) as an acceptor, and UDP-GluNAc (Sigma) as a donor. Activity is shown by an amount of transferred N-acetylglucosamine/hour/mg protein. Note, an amount of protein can be measured according to a reported method (Redinbaugh, M. G., and Turley, R. B., Anal. Biochem. 153, 267-271 (1986)) using a BCA kit (Pierce Chemical Company, Rockford, Ill.) and using bovine serum albumin as a standard.
Substrate specificity was determined using the following compound as sugar acceptors according to the above-mentioned enzyme activity measuring method. [drawing 1]
GnGnF--, GnGF--, GGnF--, Gn(Gn)GnF--, Gn(Gn)Gn--, GG--, GnGn--, MM-- and GnM-- were isolated from the bovine IgG treated with anhydrous hydrazine and then labeled with a fluorescence label according to Hase et al. method (Hase, S., Ibuki, T., and Ikehara, T., J. Biochem. 95, 197-203 (1984). The purified GnT-V was diluted with PBS buffer to a final concentration of 0.1 mg protein/ml, and then reacted with each fluorescence-labeled sugar acceptor. A result is shown in Table 2.

CC(=O)N[C@H]1[C@H](O[C@@H]([C@H](O)[C@H](CNc2ccccn2)NC(C)=O)[C@H](O)CO)O[C@H](CO)[C@@H](O[C@@H]2O[C@H](CO[C@H]3O[C@H](CO)[C@@H](O)[C@H](O)[C@@H]3O[C@@H]3O[C@H](CO)[C@@H](O[C@@H]4O[C@H](CO)[C@H](O)[C@H](O)[C@H]4O)[C@H](O)[C@H]3NC(C)=O)[C@@H](O)[C@H](O[C@H]3O[C@H](CO)[C@@H](O)[C@H](O)[C@@H]3O[C@@H]3O[C@H](CO)[C@@H](O[C@@H]4O[C@H](CO)[C@H](O)[C@H](O)[C@H]4O)[C@H](O)[C@H]3NC(C)=O)[C@@H]2O)[C@@H]1O [GG-bi-PA, Galβ1-4GlcNAcβ1-2Manα1-3(Galβ1-4GlcNAcβ1-2Manα1-6)Manβ1-4GlcNAcβ1-4GlcNAc-2-aminopyridine] showed a Relative reaction rate of 0.

In the case of CC(=O)N[C@H]1[C@H](O[C@@H]([C@H](O)[C@H](CNc2ccccn2)NC(C)=O)[C@H](O)CO[C@@H]2O[C@@H](C)[C@@H](O)[C@@H](O)[C@@H]2O)O[C@H](CO)[C@@H](O[C@@H]2O[C@H](CO[C@H]3O[C@H](CO)[C@@H](O)[C@H](O)[C@@H]3O[C@@H]3O[C@H](CO)[C@@H](O[C@@H]4O[C@H](CO)[C@H](O)[C@H](O)[C@H]4O)[C@H](O)[C@H]3NC(C)=O)[C@@H](O)[C@H](O[C@H]3O[C@H](CO)[C@@H](O)[C@H](O)[C@@H]3O[C@@H]3O[C@H](CO)[C@@H](O)[C@H](O)[C@H]3NC(C)=O)[C@@H]2O)[C@@H]1O [GGnF-bi-PA, GlcNAcβ1-2Manα1-3(Galβ1-4GlcNAc2Manα1-6)Manβ1-4GlcNAcβ1-4GlcNAc(Fucα1-6)-2-aminopyridine], the Relative reaction rate is reported as 0.2.

For CC(=O)N[C@H]1[C@H](O[C@@H]([C@H](O)[C@H](CNc2ccccn2)NC(C)=O)[C@H](O)CO)O[C@H](CO)[C@@H](O[C@@H]2O[C@H](CO[C@H]3O[C@H](CO)[C@@H](O)[C@H](O)[C@@H]3O[C@@H]3O[C@H](CO)[C@@H](O)[C@H](O)[C@H]3NC(C)=O)[C@@H](O)[C@H](O[C@H]3O[C@H](CO)[C@@H](O[C@@H]4O[C@H](CO)[C@@H](O)[C@H](O)[C@H]4NC(C)=O)[C@H](O)[C@@H]3O[C@@H]3O[C@H](CO)[C@@H](O)[C@H](O)[C@H]3NC(C)=O)[C@@H]2O)[C@@H]1O [GnGnGn-tri-PA, GlcNAcβ1-2(GlcNAcβ1-4)Manα1-3(GlcNAcβ1-2Manα1-6)-Manβ1-4GlcNAcβ1-4GlcNAc-2-aminopyridine], the “reaction of the enzyme with acceptor (qualitative)” value (“reaction of the enzyme” for short) was “reacts”, the Relative reaction rate was 125 and the “reactivity relative to GnGn-bi-PA acceptor taken as 100%” value was “about 125%”.

Compound CC(=O)N[C@H]1[C@H](O[C@H]2[C@@H](O)[C@@H](CO)O[C@@H](O[C@@H]([C@H](O)[C@@H](O)CNc3ccccn3)[C@H](O)CO)[C@@H]2O)O[C@H](CO)[C@@H](O)[C@@H]1O [Lacto-N-triaose-PA, GlcNAcβ1-3Galβ1-4Glc-2-aminopyridine] has a Relative reaction rate of 0.

Work on CC(=O)N[C@H]1[C@H](O[C@@H]([C@H](O)[C@H](CNc2ccccn2)NC(C)=O)[C@H](O)CO[C@@H]2O[C@@H](C)[C@@H](O)[C@@H](O)[C@@H]2O)O[C@H](CO)[C@@H](O[C@@H]2O[C@H](CO[C@H]3O[C@H](CO)[C@@H](O)[C@H](O)[C@@H]3O[C@@H]3O[C@H](CO)[C@@H](O)[C@H](O)[C@H]3NC(C)=O)[C@@H](O)[C@H](O[C@H]3O[C@H](CO)[C@@H](O)[C@H](O)[C@@H]3O[C@@H]3O[C@H](CO)[C@@H](O[C@@H]4O[C@H](CO)[C@H](O)[C@H](O)[C@H]4O)[C@H](O)[C@H]3NC(C)=O)[C@@H]2O)[C@@H]1O [GnGF-bi-PA, Galβ1-4GlcNAcβ1-2Manα1-3(GlcNAcβ1-2Manα1-6)Manβ1-4GlcNAcβ1-4GlcNAc(Fucα1-6)-2-aminopyridine] yielded a Relative reaction rate of 3.

Work on CC(=O)N[C@H]1[C@H](O[C@@H]([C@H](O)[C@H](CNc2ccccn2)NC(C)=O)[C@H](O)CO)O[C@H](CO)[C@@H](O[C@@H]2O[C@H](CO[C@H]3O[C@H](CO)[C@@H](O)[C@H](O)[C@@H]3O[C@@H]3O[C@H](CO)[C@@H](O)[C@H](O)[C@H]3NC(C)=O)[C@@H](O[C@@H]3O[C@H](CO)[C@@H](O)[C@H](O)[C@H]3NC(C)=O)[C@H](O[C@H]3O[C@H](CO)[C@@H](O)[C@H](O)[C@@H]3O[C@@H]3O[C@H](CO)[C@@H](O)[C@H](O)[C@H]3NC(C)=O)[C@@H]2O)[C@@H]1O [Gn(Gn)Gn-bi-PA, GlcNAcβ1-2Manα1-2Manα1-6)-Manβ1-4GlcNAcβ1-4GlcNAc-2-aminopyridine] yielded a Relative reaction rate of 0.

Work on CC(=O)N[C@H]1[C@H](O[C@@H]([C@H](O)[C@H](CNc2ccccn2)NC(C)=O)[C@H](O)CO)O[C@H](CO)[C@@H](O[C@@H]2O[C@H](CO[C@H]3O[C@H](CO)[C@@H](O)[C@H](O)[C@@H]3O)[C@@H](O)[C@H](O[C@H]3O[C@H](CO)[C@@H](O)[C@H](O)[C@@H]3O)[C@@H]2O)[C@@H]1O [MM-PA, Manα1-3Manα1-6)Manβ1-4GlcNAcβ1-4GlcNAc-2-aminopyridine] yielded a Relative reaction rate of 0.

With CC(=O)N[C@H]1[C@H](O[C@H]2[C@@H](O)[C@@H](CO)O[C@@H](O[C@@H]([C@H](O)[C@@H](O)CNc3ccccn3)[C@H](O)CO)[C@@H]2O)O[C@H](CO)[C@@H](O[C@@H]2O[C@H](CO)[C@H](O)[C@H](O)[C@H]2O)[C@@H]1O [Lacto-N-neotetraose-PA, Galβ1-4GlcNAcβ1-3Galβ1-4Glc-2-aminopyridine] the Relative reaction rate was 0.

O=C(O)CN(CCN(CC(=O)O)CC(=O)O)CC(=O)O [EDTA] was tested, and the “inhibition of GnT-V activity” value (in the presence of 20 mM EDTA) was “not inhibited”.

For [Mn+2] [Mn^2+], the “requirement for expression of GnT-V activity” value was “not necessary”.

For CC(=O)N[C@H]1[C@H](O[C@@H]([C@H](O)[C@H](CNc2ccccn2)NC(C)=O)[C@H](O)CO)O[C@H](CO)[C@@H](O[C@@H]2O[C@H](CO[C@H]3O[C@H](CO)[C@@H](O)[C@H](O)[C@@H]3O[C@@H]3O[C@H](CO)[C@@H](O)[C@H](O)[C@H]3NC(C)=O)[C@@H](O)[C@H](O[C@H]3O[C@H](CO)[C@@H](O)[C@H](O)[C@@H]3O)[C@@H]2O)[C@@H]1O [GnM-PA, Manα1-3(GlcNAcβ1-2Manα1-6)Manβ1-4GlcNAcβ1-4GlcNAc-2-aminopyridine], the “reaction of the enzyme” value was “reacts”, the Relative reaction rate was 66 and the “reactivity relative to GnGn-bi-PA acceptor taken as 100%” value was “about 66%”.

CC(=O)N[C@H]1[C@H](O[C@@H]([C@H](O)[C@H](CNc2ccccn2)NC(C)=O)[C@H](O)CO[C@@H]2O[C@@H](C)[C@@H](O)[C@@H](O)[C@@H]2O)O[C@H](CO)[C@@H](O[C@@H]2O[C@H](CO[C@H]3O[C@H](CO)[C@@H](O)[C@H](O)[C@@H]3O[C@@H]3O[C@H](CO)[C@@H](O)[C@H](O)[C@H]3NC(C)=O)[C@@H](O[C@@H]3O[C@H](CO)[C@@H](O)[C@H](O)[C@H]3NC(C)=O)[C@H](O[C@H]3O[C@H](CO)[C@@H](O)[C@H](O)[C@@H]3O[C@@H]3O[C@H](CO)[C@@H](O)[C@H](O)[C@H]3NC(C)=O)[C@@H]2O)[C@@H]1O [Gn(Gn)GnF-bi-PA, GlcNAcβ1-2Manα1-2Manα1-6)-Manβ1-4GlcNAcβ1-4GlcNAc(Fucα1-6)2-aminopyridine] showed a Relative reaction rate of 0.

In the case of CC(=O)N[C@H]1[C@H](O[C@@H]([C@H](O)[C@H](CNc2ccccn2)NC(C)=O)[C@H](O)CO[C@@H]2O[C@@H](C)[C@@H](O)[C@@H](O)[C@@H]2O)O[C@H](CO)[C@@H](O[C@@H]2O[C@H](CO[C@H]3O[C@H](CO)[C@@H](O)[C@H](O)[C@@H]3O[C@@H]3O[C@H](CO)[C@@H](O)[C@H](O)[C@H]3NC(C)=O)[C@@H](O)[C@H](O[C@H]3O[C@H](CO)[C@@H](O)[C@H](O)[C@@H]3O[C@@H]3O[C@H](CO)[C@@H](O)[C@H](O)[C@H]3NC(C)=O)[C@@H]2O)[C@@H]1O [GnGnF-bi-PA, GlcNAcβ1-2Manα1-3-(GlcNAcβ1-2Manα1-6)Manβ1-4GlcNAcβ1-4GlcNAc(Fucα1-6)-2-aminopyridine], the “reaction of the enzyme” value is reported as “reacts”, the Relative reaction rate is reported as 78 and the “reactivity relative to GnGn-bi-PA acceptor taken as 100%” value is reported as “about 78%”.
